Laboratory results from PMC8229181, “Chemical Characterization and Anti-Inflammatory Activity of Phytoconstituents from Swertia alata” (Plants, 2021).

Tests used:
[1] = tested on: carrageenan induced rat paw edema; test: Carrageenan-induced rat paw edema method; assay type: in vivo, Wistar albino rat; details: for Increase in Paw Edema (Mean ± SEM): 3 h after inducing edema, rat
Source text: Carageenan was used to induced paw Edema in Wistar albino rat. Carrageenan induced paw edema is a standard assay for acute inflammation that is effectively employed to evaluate the phytoisolate against anti-inflammatory activity. Edema is produced by a sequential release of inflammatory mediators such as histamine, serotonin, kinnins, prostaglandins and bradykinins, which leads to fluid accumulation. Edema is characteristic of an acute inflammatory response. The release of histamine or serotonin occurs in the first phase (up to 1 h) and the second phase (over 1 h) is associated with the production of bradykinins. It is well known that the third phase of the edema induced by carrageenan, in which the edema reaches its highest volume, is characterized by the presence of prostaglandins and other compounds of slow reaction. Previous studies have shown that phytocompounds of S. alata play an important pharmacological role in inflammation. […] Moreover, several studies support that S. alata species have shown antioxidative effects. Inhibition of COX by S. alata leads to a decrease in all prostaglandin and thromboxane synthesis, which accounts for the beneficial anti-inflammatory and prevents ulcerogenic effects. […] Based on the antioxidant effect, SA4 may involve the inhibition of cyclooxygenase/prostaglandin-endoperoxide synthase (PGHS-1 and PGHS-2), and regulatory enzymes, involved in the biosynthesis of prostaglandin (PG) which is strongly implicated in inflammation.
The anti-inflammatory activity of isolated compound was evaluated on Wistar albino rat using carrageenan induced rat paw edema method as per the procedure described in earlier research. The animals were divided into groups, consisting of five rats in each group. The prepared compounds were administered orally at doses of 2, 4, 8 mg/kg body weight (oral gavage) and the volume of paw was determined plethysmographically (Ugo-Basile, Gemonio (VA), Italy). […] Carrageenan (0.1 mL, 1.0% w/v in 0.9% of normal saline) was injected after half an hour into the sub-plantar tissue of the rat’s hind paw. The paw volume was measured at hourly intervals for 3 h (0, 1, 2, and 3 h) and the percent inhibition of edema was calculated using the following formula:% inhibition = (1 − Vs/Vc × 100),(1) where, Vs = paw volume in sample treated group, Vc = paw volume in control group.

[2] = target: T1, ovine COX-1 (Ovis aries, UniProt P05979); test: In vitro COX-1 inhibitory assay (enzyme immunoassay kit); assay type: biochemical; details: ovine COX-1, enzyme immunoassay kit
T1 construct: purchased Cayman Chemicals Inc., Ann Arbor, MI, USA 560131
T1 sequence (P05979 25-600): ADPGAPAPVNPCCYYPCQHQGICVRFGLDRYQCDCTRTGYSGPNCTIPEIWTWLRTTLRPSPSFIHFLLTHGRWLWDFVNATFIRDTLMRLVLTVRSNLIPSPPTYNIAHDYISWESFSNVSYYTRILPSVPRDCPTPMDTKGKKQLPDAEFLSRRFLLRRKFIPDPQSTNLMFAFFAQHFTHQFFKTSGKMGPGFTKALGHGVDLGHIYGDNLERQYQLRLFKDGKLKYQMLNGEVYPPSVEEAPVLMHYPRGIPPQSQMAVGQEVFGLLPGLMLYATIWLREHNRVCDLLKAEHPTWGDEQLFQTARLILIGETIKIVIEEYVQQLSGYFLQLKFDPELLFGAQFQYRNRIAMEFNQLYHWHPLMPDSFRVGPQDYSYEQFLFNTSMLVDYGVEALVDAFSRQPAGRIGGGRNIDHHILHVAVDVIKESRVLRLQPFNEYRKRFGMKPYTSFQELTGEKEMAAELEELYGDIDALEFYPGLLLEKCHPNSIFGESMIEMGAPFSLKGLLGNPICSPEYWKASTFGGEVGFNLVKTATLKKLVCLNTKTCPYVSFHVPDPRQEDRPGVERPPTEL
Protocol: (§1) The enzymatic assay was performed as per the manufacturer’s assay instructions and standard literature [48]. COX-1 and COX-2 enzymatic activity provides a simple, sensitive, and high-throughput adaptable method to detect the peroxidase activity of COX in biological samples or purified/crude enzyme preparations. The kit includes COX-1 and COX-2 specific inhibitors to differentiate the activity of COX-1 and COX-2 as well as other peroxidases, which may be present in the sample [49].

[3] = target: human recombinant COX-2 (Homo sapiens, UniProt P35354); test: In vitro COX-2 inhibitory assay (enzyme immunoassay kit); assay type: biochemical; details: human recombinant COX-2, enzyme immunoassay kit
human recombinant COX-2, sequence (P35354 18-604): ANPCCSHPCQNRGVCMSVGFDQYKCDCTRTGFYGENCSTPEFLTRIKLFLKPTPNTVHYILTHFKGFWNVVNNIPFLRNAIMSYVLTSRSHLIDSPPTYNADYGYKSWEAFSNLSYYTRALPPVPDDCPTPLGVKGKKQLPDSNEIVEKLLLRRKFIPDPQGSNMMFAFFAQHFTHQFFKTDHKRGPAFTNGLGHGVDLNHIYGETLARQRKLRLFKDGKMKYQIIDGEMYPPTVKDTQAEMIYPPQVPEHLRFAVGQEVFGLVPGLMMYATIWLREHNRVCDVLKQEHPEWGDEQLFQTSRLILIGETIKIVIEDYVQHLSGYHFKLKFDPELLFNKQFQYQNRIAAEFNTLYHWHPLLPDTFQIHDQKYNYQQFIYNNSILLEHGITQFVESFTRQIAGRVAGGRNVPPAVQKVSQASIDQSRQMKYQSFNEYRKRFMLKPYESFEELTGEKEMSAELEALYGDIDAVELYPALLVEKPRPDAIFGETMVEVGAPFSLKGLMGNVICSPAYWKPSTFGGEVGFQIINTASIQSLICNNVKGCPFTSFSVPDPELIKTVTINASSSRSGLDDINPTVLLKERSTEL
Protocol: as §1

Row | SMILES | Increase in Paw Edema (Mean ± SEM) ([1]; reference drug, oral (8 mg/kg; 21 mg/kg elsewhere in the source)) | Increase in Paw Edema (Mean ± SEM) ([1]; 2 mg/kg oral) | Increase in Paw Edema (Mean ± SEM) ([1]; 4 mg/kg oral) | Increase in Paw Edema (Mean ± SEM) ([1]; 8 mg/kg oral) | IC50 [2] | IC50 [3] | development of edema at the third hour after treatment ([1]; 8 mg/kg, third hour, p < 0.05)
1 | COc1ccc2c(c1)c(CC(=O)O)c(C)n2C(=O)c1ccc(Cl)cc1 [Indomethacin, reference compound] | 0.15 ± 0.02 mL | – | – | – | – | – | –
2 | CC1(C)CC[C@]2(C(=O)O)CC[C@]3(C)C(=CC[C@@H]4[C@@]5(C)CC[C@H](O)C(C)(C)[C@@H]5CC[C@]43C)[C@@H]2C1 [SA-1, oleanolic acid] | – | 0.29 ± 0.00 mL | 0.27 ± 0.22 mL | 0.23 ± 0.01 mL | – | – | –
3 | CC(C)C1CCC2(C(=O)O)CCC3(C)C(=CCC4C5(C)CCC(O)C(C)(C)C5CCC43C)C12 (stereo not shown) [SA-4, 3-hydroxylup-12-(13)-ene-17-carboxylic acid] | – | 0.28 ± 0.00 mL | 0.26 ± 0.22 mL | 0.17 ± 0.01 mL | 104 µM | 61.7 µM | significantly inhibited
